Test results: patent US20250084078A1, “FUSED RING-SUBSTITUTED SIX-MEMBERED HETEROCYCLIC COMPOUND, AND PREPARATION METHOD THEREFOR AND USE THEREOF” (GENFLEFT THERAPEUTICS (SHANGHAI) INC., priority 2022, published 2025)
pIC50: −log10 of the molar value.

Key:
[1] = target: T1, HPK1 (Homo sapiens, UniProt Q92918); assay: HPK1 kinase activity assay (ADP-Glo); details: HPK1 Kinase activity IC50, ADP-Glo; 1 nM HPK1, 10 μM ATP, 0.1 μg/μL MBP
T1 sequence (Q92918 1-346): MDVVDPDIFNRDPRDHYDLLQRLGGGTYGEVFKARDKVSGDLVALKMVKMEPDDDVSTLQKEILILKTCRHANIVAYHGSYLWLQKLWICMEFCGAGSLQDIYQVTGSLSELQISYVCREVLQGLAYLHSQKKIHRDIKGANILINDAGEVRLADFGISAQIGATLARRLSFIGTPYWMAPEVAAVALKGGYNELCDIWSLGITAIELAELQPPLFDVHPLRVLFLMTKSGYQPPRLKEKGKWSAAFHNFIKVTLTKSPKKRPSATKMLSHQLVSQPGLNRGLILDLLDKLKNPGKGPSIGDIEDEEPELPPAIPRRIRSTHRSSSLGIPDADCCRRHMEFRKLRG
Protocol: Preparation of buffer: Ix reaction buffer (40 mM Tris-HCl, 20 mM MgCl2, 0.01% Brij35, 50 μM DTT, 0.1 mg/ml BSA) was prepared using sterile water, which was prepared and used on the day of the experiment.
Preparation of 1000× drug stock plate: a 1000× compound stock plate was prepared. […] The compound stock plate was sealed with a sealing film and stored in a −20° C. refrigerator for later use.
Compound preparation and dosing: the 1000× drug stock plate was taken and melted at room temperature in the dark. Then 5× drug intermediate plate was prepared using reaction buffer and mixed well. 2 μL was transferred from the 5× drug intermediate plate into a 384-well plate, and negative control well and positive control well (in which 2 μL reaction buffer containing 0.5% DMSO was added) were set. Each point was repeated twice.
Preparation and incubation of reaction mixture: HPK1 protein was diluted to a 2.5× working solution with reaction buffer. 4 μL 2.5×HPK1 protein was added to each well containing test compound and positive control well, and 4 μL of reaction buffer without HPK1 protein was added to the negative control well. The obtained mixture was centrifuged at 1000 rpm for 1 min and then incubated in a 20° C. incubator for 15 min. A 2.5× mixed working solution of MBP protein and ATP was prepared with reaction buffer at concentrations of 0.5 μg/μL and 50 μM, respectively. 4 μL of the mixed working solution of MBP and ATP was added to each well, centrifuged at 1000 rpm for 1 min, and then incubated in a 20° C. incubator for 90 min.
ADP-Glo detection and reading plate: 10 μl ADP-Glo was added to each well of the test plate. The resulting mixture was centrifuged at 1000 rpm for 1 min and incubated in a 20° C. incubator for 60 min. Then 10 μL of the final incubation solution was transferred from the test plate to a new 384-well plate. 10 μL of kinase detection reagent was added to each well, centrifuged at 400 g for 1 min, and incubated in a 20° C. incubator for 60 min Chemiluminescent signals were read by a microplate reader.

[2] = target: HPK1 (Homo sapiens, UniProt Q92918); assay: SLP76 phosphorylation assay (intracellular HPK1 inhibitory activity, p-SLP76 S376 ELISA in Jurkat cells); details: p-SLP76 IC50, Jurkat, Clone E6-1 cells; 1 h compound pre-incubation; anti-CD3 beads stimulation 20 min; Phospho-SLP-76 (Ser376) ELISA
Target sequence in this assay (Q92918 whole entry): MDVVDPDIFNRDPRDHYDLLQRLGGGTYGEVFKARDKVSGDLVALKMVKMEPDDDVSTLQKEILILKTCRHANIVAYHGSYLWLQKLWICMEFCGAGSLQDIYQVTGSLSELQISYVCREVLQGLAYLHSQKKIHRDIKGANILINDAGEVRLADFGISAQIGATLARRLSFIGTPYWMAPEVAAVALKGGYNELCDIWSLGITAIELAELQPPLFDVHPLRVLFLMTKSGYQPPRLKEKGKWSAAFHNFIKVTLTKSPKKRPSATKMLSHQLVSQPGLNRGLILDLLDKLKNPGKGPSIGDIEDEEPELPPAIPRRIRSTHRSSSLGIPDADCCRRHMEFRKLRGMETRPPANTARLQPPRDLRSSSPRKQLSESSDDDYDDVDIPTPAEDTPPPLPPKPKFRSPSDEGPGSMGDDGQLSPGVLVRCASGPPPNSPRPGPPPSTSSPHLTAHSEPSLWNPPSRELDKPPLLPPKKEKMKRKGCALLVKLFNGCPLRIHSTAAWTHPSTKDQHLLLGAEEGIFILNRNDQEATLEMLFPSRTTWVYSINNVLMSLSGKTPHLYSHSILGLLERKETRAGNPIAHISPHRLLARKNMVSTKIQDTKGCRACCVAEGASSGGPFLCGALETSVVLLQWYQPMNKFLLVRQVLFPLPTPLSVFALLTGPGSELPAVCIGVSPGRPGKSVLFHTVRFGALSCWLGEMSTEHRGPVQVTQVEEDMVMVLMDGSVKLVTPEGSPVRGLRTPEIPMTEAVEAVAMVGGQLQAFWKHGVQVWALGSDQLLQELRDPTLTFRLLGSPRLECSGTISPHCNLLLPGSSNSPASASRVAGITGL

| SMILES | pIC50 [1] | pIC50 [2] |
| --- | --- | --- |
| CCc1c[nH]c2ncc(-c3cc4c(c([C@@H]5COCCN5)c3)CN(C(=O)N3CCOCC3)CC4)nc12 [Compound Z528, (R)-(6-(7-ethyl-5H-pyrrolo[2,3-b]pyrazin-2-yl)-8-(morpholin-3-yl)-3,4-dihydroisoquinolin-2(1H)-yl)(morpholino)methanone] | 9.80 | 7.37 |
| CC(C)c1c[nH]c2ncc(-c3cc4c(c([C@@H]5COCCN5)c3)CN(C(=O)C(C)(C)O)CC4)nc12 [Compound Z541, (R)-2-hydroxy-1-(6-(7-isopropyl-5H-pyrrolo[2,3-b]pyrazin-2-yl)-8-(morpholin-3-yl)-3,4-dihydroisoquinolin-2(1H)-yl)-2-methylpropan-1-one] | 9.80 | 7.47 |
| O=C(N1CCc2cc(-c3cnc4[nH]cc(C(F)(F)F)c4c3)cc([C@@H]3COCCN3)c2C1)N1CC2CCC(C1)O2 [Compound Z544, (8-oxa-3-azabicyclo[3.2.1]octan-3-yl)(8-((R)-morpholin-3-yl)-6-(3-(trifluoromethyl)-1H-pyrrolo[2,3-b]pyridin-5-yl)-3,4-dihydroisoquinolin-2(1H)-yl)methanone] | 9.92 | 7.30 |
| O=C(N1CCc2cc(-c3cnc4[nH]cc(Cl)c4n3)cc([C@@H]3COCCN3)c2C1)N1CC2CCC(C1)O2 [Compound Z549, (8-oxa-3-azabicyclo[3.2.1]octan-3-yl)(6-(7-chloro-5H-pyrrolo[2,3-b]pyrazin-2-yl)-8-((R)-morpholin-3-yl)-3,4-dihydroisoquinolin-2(1H)-yl)methanone] | 9.96 | 7.18 |
| Cc1c[nH]c2ncc(-c3cc4c(c([C@@H]5COCCN5)c3)CN(C(=O)N3C[C@@H](C)O[C@H](C)C3)CC4)cc12 [Compound Z552, ((2R,6R)-2,6-dimethylmorpholine)(6-(3-methyl-1H-pyrrolo[2,3-b]pyridin-5-yl)-8-((R)-morpholin-3-yl)-3,4-dihydroisoquinolin-2(1H)-yl)methanone] | 9.66 | 6.98 |
| Cc1c[nH]c2ncc(-c3cc4c(c([C@@H]5COCCN5)c3)CN(C(=O)N3CCC(F)CC3)CC4)nc12 [Compound Z566, (R)-(4-fluoropiperidin-1-yl)(6-(7-methyl-5H-pyrrolo[2,3-b]pyrazin-2-yl)-8-(morpholin-3-yl)-3,4-dihydroisoquinolin-2(1H)-yl)methanone] | 9.62 | 7.09 |
| Cc1c[nH]c2ncc(-c3cc4c(c([C@@H]5COCCN5)c3)CN(C(=O)[C@](C)(O)C(F)(F)F)CC4)nc12 [Compound Z568, (S)-3,3,3-trifluoro-2-hydroxy-2-methyl-1-(6-(7-methyl-5H-pyrrolo[2,3-b]pyrazin-2-yl)-8-((R)-morpholin-3-yl)-3,4-dihydroisoquinolin-2(1H)-yl)propan-1-one] | 9.48 | 7.18 |
| Cc1c[nH]c2ncc(-c3cc4c(c([C@@H]5COCCN5)c3)CN(C(=O)N3C5CCC3COC5)CC4)nc12 [Compound Z570, (3-oxa-8-azabicyclo[3.2.1]octan-8-yl)(6-(7-methyl-5H-pyrrolo[2,3-b]pyrazin-2-yl)-8-((R)-morpholin-3-yl)-3,4-dihydroisoquinolin-2(1H)-yl)methanone] | 9.89 | 7.50 |
| O=C(N1CCc2cc(-c3cnc4[nH]cc(Cl)c4n3)cc([C@@H]3COCCN3)c2C1)N1C2CCC1COC2 [Compound Z571, (3-oxa-8-azabicyclo[3.2.1]octan-8-yl)(6-(7-chloro-5H-pyrrolo[2,3-b]pyrazin-2-yl)-8-((R)-morpholin-3-yl)-3,4-dihydroisoquinolin-2(1H)-yl)methanone] | 9.31 | 6.97 |
| Cc1c[nH]c2ncc(-c3cc4c(c([C@@H]5COCCN5)c3)CN(C(=O)N3CC5CCC(C3)O5)CC4)nc12 [Compound Z572, (8-oxa-3-50 azabicyclo[3.2.1]octan-3-yl)(6-(7-methyl-5H-pyrrolo[2,3-b]pyrazin-2-yl)-8-((R)-morpholin-3-yl)-3,4-dihydroisoquinolin-2(1H)-yl)methanone] | 9.80 | 7.55 |
| Cc1c[nH]c2ncc(-c3cc4c(c([C@@H]5COCCN5)c3)CN(C(=O)N3CCOC[C@@H]3C)CC4)nc12 [Compound Z574, (6-(7-methyl-5H-pyrrolo[2,3-b]pyrazin-2-yl)-8-((R)-morpholin-3-yl)-3,4-dihydroisoquinolin-2(1H)-yl)((S)-3-methylmorpholine)methanone] | 9.39 | 7.08 |
| Cc1c[nH]c2ncc(-c3cc4c(c([C@@H]5COCCN5)c3)CN(C(=O)N3CC(O)CC3(C)C)CC4)cc12 (stereo partly drawn) [Compound Z577] | 9.60 | 7.11 |
| Cc1c[nH]c2ncc(-c3cc4c(c([C@@H]5COCCN5)c3)CN(C(=O)N3CCOC[C@@H]3C)CC4)cc12 [Compound Z581, (6-(3-methyl-1H-pyrrolo[2,3-b]pyridin-5-yl)-8-((R)-morpholin-3-yl)-3,4-dihydroisoquinolin-2(1H)-yl)((S)-3-methylmorpholino)methanone] | 9.62 | 7.06 |
| Cc1c[nH]c2ncc(-c3cc4c(c([C@@H]5COCCN5)c3)CN(C(=O)N3CCC(F)CC3)CC4)cc12 [Compound Z585, (R)-(4-fluoropiperidin-1-yl)(6-(3-methyl-1H-pyrrolo[2,3-b]pyridin-5-yl)-8-(morpholin-3-yl)-3,4-dihydroisoquinolin-2(1H)-yl)methanone] | 9.60 | 7.08 |

More lines, now with the values ahead:

| pIC50 [1] | pIC50 [2] | SMILES |
| --- | --- | --- |
| 10.10 | 6.99 | Cc1c[nH]c2ncc(-c3cc4c(c([C@@H]5COCCN5)c3)CN(C(=O)N3C[C@@H](C)O[C@H](C)C3)CC4)nc12 [Compound Z600] |
| 9.68 | 7.17 | Cc1c[nH]c2ncc(-c3cc4c(c([C@@H]5COCCN5)c3)CN(C(=O)N3CC[C@H](F)C3)CC4)nc12 [Compound Z603, ((S)-3-fluoropyrrolidin-1-yl)(6-(7-methyl-5H-pyrrolo[2,3-b]pyrazin-2-yl)-8-((R)-morpholin-3-yl)-3,4-dihydroisoquinolin-2(1H)-yl)methanone] |
| 9.44 | 6.97 | O=C(N1CCc2cc(-c3cnc4[nH]cc(Cl)c4c3)cc([C@@H]3COCCN3)c2C1)N1CC[C@H](F)C1 [Compound Z604, (6-(3-chloro-1H-pyrrolo[2,3-b]pyridin-5-yl)-8-((R)-morpholin-3-yl)-3,4-dihydroisoquinolin-2(1H)-yl)((S)-3-fluoropyrrolidin-1-yl)methanone] |
| 9.60 | 7.20 | O=C(N1CCc2cc(-c3cnc4[nH]cc(C(F)(F)F)c4n3)cc([C@@H]3COCCN3)c2C1)N1CC2CCC(C1)O2 [Compound Z606, (8-oxa-3-azabicyclo[3.2.1]octan-3-yl)(8-((R)-morpholin-3-yl)6-(7-(trifluoromethyl)-5H-pyrrolo[2,3-b]pyrazin-2-yl)-3,4-dihydroisoquinolin-2(1H)-yl)methanone] |
| 9.57 | 7.12 | Cc1c[nH]c2ncc(-c3cc4c(c([C@@H]5COCCN5)c3)CN(C(=O)N3C[C@H]5C[C@@H]3CO5)CC4)nc12 [Compound Z607, ((1R,4R)-2-oxa-5-azabicyclo[2.2.1]heptan-5-yl)(6-(7-methyl-5H-pyrrolo[2,3-b]pyrazin-2-yl)-8-((R)-morpholin-3-yl)-3,4-dihydroisoquinolin-2(1H)-yl)methanone] |
| 9.57 | 7.17 | O=C(N1CCc2cc(-c3cnc4[nH]cc(Cl)c4c3)cc([C@@H]3COCCN3)c2C1)N1C[C@H]2C[C@@H]1CO2 [Compound Z608, ((1R,4R)-2-oxa-5-azabicyclo[2.2.1]heptan-5-yl)(6-(3-chloro-1H-pyrrolo[2,3-b]pyridin-5-yl)-8-((R)-morpholin-3-yl)-3,4-dihydroisoquinolin-2(1H)-yl)methanone] |
| 9.43 | 7.00 | O=C(N1CCc2cc(-c3cnc4[nH]cc(C(F)(F)F)c4c3)cc([C@@H]3COCCN3)c2C1)N1C2CCC1COC2 [Compound Z611] |
| 9.12 | 6.68 | Cc1c[nH]c2ncc(-c3cc4c(c([C@@H]5COCCN5)c3)CN(C(=O)C3(C)CCOCC3)CC4)cc12 [Compound Z615, (R)-(6-(3-methyl-1H-pyrrolo[2,3-b]pyridin-5-yl)-8-(morpholin-3-yl)-3,4-dihydroisoquinolin-2(1H)-yl)(4-methyltetrahydro-2H-pyran-4-yl)methanone] |
| 9.44 | 7.06 | CC1(C)CC(O)CN1C(=O)N1CCc2cc(-c3cnc4[nH]cc(Cl)c4c3)cc([C@@H]3COCCN3)c2C1 (stereo partly drawn) [Compound Z617, (6-(3-chloro-1H-pyrrolo[2,3-b]pyridin-5-yl)-8-((R)-morpholin-3-yl)-3,4-dihydroisoquinolin-2(1H)-yl)(4-hydroxy-2,2-dimethylpyrrolidin-1-yl)methanone] |
| 9.44 | 7.12 | Cc1c[nH]c2ncc(-c3cc4c(c([C@@H]5COCCN5)c3)CN(C(=O)N3CCC(F)(F)CC3)CC4)nc12 [Compound Z624, (R)-(4,4-difluoropiperidin-1-yl)(6-(7-methyl-5H-pyrrolo[2,3-b]pyrazin-2-yl)-8-(morpholin-3-yl)-3,4-dihydroisoquinolin-2(1H)-yl)methanone] |
